# From patent publication US6444617B1, “Fused-heterocycle dicarboxylic acid diamide derivatives or salts thereof, herbicide and usage thereof” (Nihon Nohyaku Co., Ltd., priority 1998, dated 2002)
# Key:
# Format in all cases: in vivo
# [1] = test system: cocklebur (Xanthium strumarium L.), Xs; experiment: Test Example 3: herbicidal effect on upland weeds before emergence; details: dosage 5 kg/ha
# Procedure: (§1) Herbicidal Effect on Upland Weeds Before Emergence […] Then, a liquid preparation of an agent comprising a prescribed concentration of a compound of the present invention (the compounds listed in Tables 1-14) as active ingredient was sprayed. Fourteen days after the treatment, the herbicidal effect was investigated, from which weed-killing rate was calculated in the same manner as in Test Example 1, and the herbicidal effect was judged.
# [2] = test system: bird's eye speedwell (Veronica persica Poir.), Vp; experiment: as above; details: dosage 5 kg/ha
# Procedure: as §1
# [3] = test system: barnyard grass (Echinochloa crus-galli Beauv.), Ec; experiment: as above; details: dosage 5 kg/ha
# Procedure: as §1
# [4] = test system: velvetleaf (Abutilon theophtasti L.), At; experiment: as above; details: dosage 5 kg/ha
# Procedure: as §1
# [5] = test system: forxtail grass (Alopecurus aequalis var. amurensis Ohwi), Am; experiment: as above; details: foxtail grass, dosage 5 kg/ha
# Procedure: as §1
# [6] = test system: cleavers (Galium aparine L.), Ga; experiment: as above; details: dosage 5 kg/ha
# Procedure: as §1
# [7] = test system: monochoria (Monochoria vaginalis Presl); experiment: Test Example 2: herbicidal effect on paddy field weeds after emergence; details: Dosage 5 kg/ha; one-leaved stage; 21 days after treatment
# Procedure: (§2) Test for Herbicidal Effect on Paddy Field Weeds After Emergence. Soil was filled into 1/10000 are pots and brought into a state of paddy field, in which seeds of barnyard grass (Echinochloa crus-galli Beauv.), bulrush (Scirpus juncoides Roxb.) and monochoria (Monochoria vaginalis Presl) were made to reach one-leaved stage. The soil in the pots were treated with a solution containing a predetermined dosage of a chemical agent comprising a compound of the present invention listed in Tables 1 to 14. Twenty one days after the treatment, the herbicidal effect was investigated and the result was compared with that in untreated plot to calculate the weed-controlling rate, and the herbicidal effect was judged according to the same criterion as in Test Example 1.
# [8] = test system: barnyard grass (Echinochloa crus-galli Beauv.); experiment: as above; details: Dosage 5 kg/ha; one-leaved stage; 21 days after treatment
# Procedure: as §2
# [9] = test system: bulrush (Scirpus juncoides Roxb.); experiment: as above; details: Dosage 5 kg/ha; one-leaved stage; 21 days after treatment
# Procedure: as §2
# soybean plant = experiment: Test Example 4: phytotoxicity to upland crop plants, treatment after emergence; details: dosage 5 kg/ha, sprayed after emergence, judged 14 days after treatment
# Text: (§3) Herbicidal Effect on Upland Weeds After Emergence Polyethylene-made vats having a size of 10 cm (length)×20 cm (width)×5 cm (height) were filled with soil, sown with seeds of the following noxious upland weeds and with seeds of soybean plant and wheat as upland crop plants, and then covered with soil. The plants were made to grow up until they reached the leaf-stages mentioned below, after which an agent comprising a prescribed concentration of a compound of the present invention (listed in Tables 1 to 14) as active ingredient was sprayed. Fourteen days after the treatment, the herbicidal effect was investigated, from which weed-killing rate was calculated in the same manner as in Test Example 1 and the results were judged. […] Sample weeds, their leaf stages, and leaf stages of soybean plant and wheat were as follows: [table]
# wheat = experiment: as above; details: dosage 5 kg/ha, sprayed after emergence, judged 14 days after treatment
# Text: as §3
# [10] = test system: barnyard grass (Echinochloa crus-galli Beauv.); experiment: Test Example 1: herbicidal effect on paddy field weeds before emergence; details: Dosage 5 kg/ha
# Procedure: as §2, with “Before Emergence” for “After Emergence.”, “Beauv.) and” for “Beauv.),”, “Roxb.)” for “Roxb.) and monochoria (Monochoria vaginalis Presl)”, “be before germination.” for “reach one-leaved stage.”, “investigated,” for “investigated and”, “following criterion: […]” for “same criterion as in Test Example 1.”
# [11] = test system: bulrush (Scirpus juncoides Roxb.); experiment: as above; details: Dosage 5 kg/ha
# Procedure: as §2, with “Before Emergence” for “After Emergence.”, “Beauv.) and” for “Beauv.),”, “Roxb.)” for “Roxb.) and monochoria (Monochoria vaginalis Presl)”, “be before germination.” for “reach one-leaved stage.”, “investigated,” for “investigated and”, “following criterion: […]” for “same criterion as in Test Example 1.”
# soybean plant (So) = experiment: Test Example 3: phytotoxicity to upland crop plants, treatment before emergence; details: dosage 5 kg/ha
# Procedure: as §1, with “judged. At the same time, phytotoxicity to soybean plant and wheat was investigated and judged according to the criterion mentioned below.” for “judged.”
# wheat (Wh) = experiment: as above; details: dosage 5 kg/ha
# Procedure: as §1, with “judged. At the same time, phytotoxicity to soybean plant and wheat was investigated and judged according to the criterion mentioned below.” for “judged.”
# [12] = test system: cocklebur (Xanthium strumarium L.), Xs; experiment: Test Example 4: herbicidal effect on upland weeds after emergence; details: dosage 5 kg/ha; sprayed after emergence; judged 14 days after treatment
# Text: as §3
# [13] = test system: bird's eye speedwell (Veronica persica Poir.), Vp; experiment: as above; details: dosage 5 kg/ha; sprayed after emergence; judged 14 days after treatment
# Text: as §3
# [14] = test system: barnyard grass (Echinochloa crus-galli Beauv.), Ec; experiment: as above; details: dosage 5 kg/ha; sprayed after emergence; judged 14 days after treatment
# Text: as §3
# [15] = test system: velvetleaf (Abutilon theophtasti L.), At; experiment: as above; details: dosage 5 kg/ha; sprayed after emergence; judged 14 days after treatment
# Text: as §3
# [16] = test system: forxtail grass (Alopecurus aequalis var. amurensis Ohwi), Am; experiment: as above; details: dosage 5 kg/ha; sprayed after emergence; judged 14 days after treatment
# Text: as §3
# [17] = test system: cleavers (Galium aparine L.), Ga; experiment: as above; details: dosage 5 kg/ha; sprayed after emergence; judged 14 days after treatment
# Text: as §3
SMILES,Herbicidal effect Xs [1],Herbicidal effect Vp [2],Herbicidal effect Ec [3],Herbicidal effect At [4],Herbicidal effect Am [5],Herbicidal effect Ga [6],Post-emergence treatment Monochoria (herbicidal effect) [7],Post-emergence treatment Barnyard grass (herbicidal effect) [8],Post-emergence treatment Bulrush (herbicidal effect) [9],Phytotoxicity So (soybean plant),Phytotoxicity Wh (wheat),Pre-emergence treatment Barnyard grass (herbicidal effect) [10],Pre-emergence treatment Bulrush (herbicidal effect) [11],Phytotoxicity So (soybean plant (So)),Phytotoxicity Wh (wheat (Wh)),Herbicidal effect Xs [12],Herbicidal effect Vp [13],Herbicidal effect Ec [14],Herbicidal effect At [15],Herbicidal effect Am [16],also measured
CCc1ccc(Cl)c(CC)c1NC(=O)c1cc2ccccc2nc1C(=O)NC [359-1],5 (Weed-killing rate is 100%.),5 (Weed-killing rate is 100%.),5 (Weed-killing rate is 100%.),5 (Weed-killing rate is 100%.),5 (Weed-killing rate is 100%.),5 (Weed-killing rate is 100%.),5 (Weed-killing rate is 100%.),5 (Weed-killing rate is 100%.),5 (Weed-killing rate is 100%.),3 (Crop-killing rate is 70-89%.),2 (Crop-killing rate is 40-69%.),5 (Weed-killing rate is 100%.),5 (Weed-killing rate is 100%.),0 (Crop-killing rate is 0-20% (No Phytotoxicity).),0 (Crop-killing rate is 0-20% (No Phytotoxicity).),5 (Weed-killing rate is 100%.),5 (Weed-killing rate is 100%.),5 (Weed-killing rate is 100%.),5 (Weed-killing rate is 100%.),5 (Weed-killing rate is 100%.),Herbicidal effect Ga [17]: 5 (Weed-killing rate is 100%.)
CCNC(=O)c1nc2ccccc2cc1C(=O)Nc1c(CC)ccc(Cl)c1CC [359-2],5 (Weed-killing rate is 100%.),5 (Weed-killing rate is 100%.),5 (Weed-killing rate is 100%.),5 (Weed-killing rate is 100%.),5 (Weed-killing rate is 100%.),5 (Weed-killing rate is 100%.),5 (Weed-killing rate is 100%.),5 (Weed-killing rate is 100%.),5 (Weed-killing rate is 100%.),4 (Crop-killing rate is 90-99%.),3 (Crop-killing rate is 70-89%.),5 (Weed-killing rate is 100%.),5 (Weed-killing rate is 100%.),1 (Crop-killing rate is 1-39%.),0 (Crop-killing rate is 0-20% (No Phytotoxicity).),5 (Weed-killing rate is 100%.),5 (Weed-killing rate is 100%.),5 (Weed-killing rate is 100%.),5 (Weed-killing rate is 100%.),5 (Weed-killing rate is 100%.),Herbicidal effect Ga [17]: 5 (Weed-killing rate is 100%.)
CCCNC(=O)c1nc2ccccc2cc1C(=O)Nc1c(CC)ccc(Cl)c1CC [359-3],5 (Weed-killing rate is 100%.),5 (Weed-killing rate is 100%.),5 (Weed-killing rate is 100%.),5 (Weed-killing rate is 100%.),5 (Weed-killing rate is 100%.),5 (Weed-killing rate is 100%.),5 (Weed-killing rate is 100%.),5 (Weed-killing rate is 100%.),5 (Weed-killing rate is 100%.),3 (Crop-killing rate is 70-89%.),2 (Crop-killing rate is 40-69%.),5 (Weed-killing rate is 100%.),5 (Weed-killing rate is 100%.),0 (Crop-killing rate is 0-20% (No Phytotoxicity).),0 (Crop-killing rate is 0-20% (No Phytotoxicity).),5 (Weed-killing rate is 100%.),5 (Weed-killing rate is 100%.),5 (Weed-killing rate is 100%.),5 (Weed-killing rate is 100%.),5 (Weed-killing rate is 100%.),Herbicidal effect Ga [17]: 5 (Weed-killing rate is 100%.)
CCc1ccc(Cl)c(CC)c1NC(=O)c1cc2ccccc2nc1C(=O)NC(C)(C)C [359-4],5 (Weed-killing rate is 100%.),5 (Weed-killing rate is 100%.),5 (Weed-killing rate is 100%.),5 (Weed-killing rate is 100%.),5 (Weed-killing rate is 100%.),5 (Weed-killing rate is 100%.),5 (Weed-killing rate is 100%.),5 (Weed-killing rate is 100%.),5 (Weed-killing rate is 100%.),4 (Crop-killing rate is 90-99%.),2 (Crop-killing rate is 40-69%.),5 (Weed-killing rate is 100%.),5 (Weed-killing rate is 100%.),2 (Crop-killing rate is 40-69%.),0 (Crop-killing rate is 0-20% (No Phytotoxicity).),5 (Weed-killing rate is 100%.),5 (Weed-killing rate is 100%.),5 (Weed-killing rate is 100%.),5 (Weed-killing rate is 100%.),5 (Weed-killing rate is 100%.),Herbicidal effect Ga [17]: 5 (Weed-killing rate is 100%.)
CCc1ccc(Cl)c(CC)c1NC(=O)c1cc2ccccc2nc1C(=O)NCC(C)(C)C [359-5],5 (Weed-killing rate is 100%.),5 (Weed-killing rate is 100%.),5 (Weed-killing rate is 100%.),5 (Weed-killing rate is 100%.),5 (Weed-killing rate is 100%.),5 (Weed-killing rate is 100%.),5 (Weed-killing rate is 100%.),5 (Weed-killing rate is 100%.),5 (Weed-killing rate is 100%.),2 (Crop-killing rate is 40-69%.),3 (Crop-killing rate is 70-89%.),5 (Weed-killing rate is 100%.),5 (Weed-killing rate is 100%.),0 (Crop-killing rate is 0-20% (No Phytotoxicity).),0 (Crop-killing rate is 0-20% (No Phytotoxicity).),5 (Weed-killing rate is 100%.),5 (Weed-killing rate is 100%.),5 (Weed-killing rate is 100%.),5 (Weed-killing rate is 100%.),5 (Weed-killing rate is 100%.),Herbicidal effect Ga [17]: 5 (Weed-killing rate is 100%.)
